Experimental data published in patent US20210330611A1, “THERAPY FOR NEUROLOGICAL DISEASES/DISORDERS” (priority 2020, published 2021).
Where a name gives a salt, the structure may show the parent alone. Read-outs that look alike come from different tables or passages of the source.

Legend:
[1] = tested on: LPS-induced microglia activation; assay: Image-based assay of LPS-induced microglia activation (HTS and dose response); assay type: cell-based, rat
[2] = tested on: fibrin- and LPS-induced microglia activation; assay: cells; assay type: cell-based, rat
primary rat microglia [3] = tested on: primary rat microglia;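 for Fibrin % cell toxicity: share of dead cells sized under 150 µm2 at 10 µM in fibrin-stimulated microglia HTS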
[4] = tested on: fibrin-induced microglia activation; assay: Image-based assay of fibrin-induced microglia activation (HTS and dose response); assay type: cell-based, rat; details: for inhibition at 10 µM: Rattus norvegicus, Microglia, read-out: Fibrin % inhibition
primary rat microglia [5] = tested on: primary rat microglia; remark: listed apart in the source;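 for Fibrin % cell toxicity: share of dead cells sized under 150 µm2 at 10 µM in fibrin-stimulated microglia HTS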
[6] = Rattus norvegicus, Microglia, primary microglia HTS, 10 μM, LPS-stimulated, cell size >800 μm^2 as marker of activation; read-out: LPS % inhibition
[7] = HTS of 1907 compounds, quadrant by fibrin and LPS inhibition
[8] = primary microglia HTS, 10 μM, fibrin-stimulated, cell size >800 μm^2 as marker of activation
[9] = classification by fibrin and LPS inhibition, HTS at 10 μM
[10] = primary microglia HTS, fibrin stimulation, compounds at 10 μM
[11] = Rattus norvegicus, Microglia, read-out: LPS % inhibition
[12] = classification by fibrin and LPS inhibition in HTS
[13] = primary microglia HTS, fibrin stimulation, cell size >800 μm2 as marker of activation
[14] = Rattus norvegicus, Microglia, 48 h; read-out: LPS % inhibition
[15] = Rattus norvegicus, Microglia, 48 h, read-out: LPS % inhibition
[16] = quadrant by fibrin and LPS inhibition in HTS of 1907 compounds
[17] = primary microglia HTS, fibrin stimulation, increased cell size (>800 μm^2) as marker of activation
[18] = primary HTS, 10 μM, fibrin-stimulated primary microglia
[19] = primary HTS, 10 μM, LPS-stimulated primary microglia

Cc1ccc(C(=O)c2ccc(CC(=O)O)n2C)cc1 [Tolmetin]
inhibition at 10 µM [1, 6]: 28% | Quadrant (FIG. 5b) [2, 7]: Q4 | LPS % cell toxicity (primary rat microglia [3]; rat): 0% | inhibition at 10 µM [4, 8]: 48% | Fibrin % cell toxicity (primary rat microglia [5]; rat): 0%

C=C1CC[C@H](O)C/C1=C/C=C1\CCC[C@]2(C)[C@@H]([C@H](C)/C=C/[C@H](C)C(C)C)CC[C@@H]12 [Ergocalciferol]
inhibition at 10 µM ([1]; Rattus norvegicus, Microglia, primary microglia HTS, LPS stimulation, compounds at 10 μM; read-out: LPS % inhibition): 7% | Quadrant (FIG. 5b) [2, 9]: Q4 | LPS % cell toxicity (primary rat microglia [3]; rat): 0% | inhibition at 10 µM [4, 10]: -6% | Fibrin % cell toxicity (primary rat microglia [5]; rat): 1%

O=c1ccc2ccccc2o1 [2H-1-BENZOPYRAN-2-ONE]
LPS % inhibition ([1]; 10 µM): 13% | Quadrant (FIG. 5b) [2]: Q4 | LPS % cell toxicity (primary rat microglia [3]): 0% | Fibrin % inhibition ([4]; 10 µM): −35% | Fibrin % cell toxicity (primary rat microglia [5]): 0%

O=c1[nH]c2ccccc2n1CCCN1CCC(n2c(=O)[nH]c3cc(Cl)ccc32)CC1 [Domperidone]
inhibition at 10 µM [1, 11]: 15% | Quadrant (FIG. 5b) [2]: Q4 | LPS % cell toxicity (primary rat microglia [3]; rat): 0% | inhibition at 10 µM [4]: 20% | Fibrin % cell toxicity (primary rat microglia [5]; rat): 1%

CC1=C(C/C=C(\C)CCC[C@H](C)CCC[C@H](C)CCCC(C)C)C(=O)c2ccccc2C1=O [Phylloquinone]
LPS % inhibition [1]: 31% | Quadrant (FIG. 5b) [2, 12]: Q4 | LPS % cell toxicity (primary rat microglia [3]): 2% | Fibrin % inhibition [4, 13]: 4% | Fibrin % cell toxicity (primary rat microglia [5]): 0%

CNC(=O)Oc1ccc2c(c1)[C@]1(C)CCN(C)[C@@H]1N2C [Physostigmine]
inhibition at 10 µM [1, 14]: 18% | Quadrant (FIG. 5b) [2, 12]: Q4 | LPS % cell toxicity (primary rat microglia [3]; rat): 0% | inhibition at 10 µM [4, 13]: -73% | Fibrin % cell toxicity (primary rat microglia [5]; rat): 0%

C=C[C@H]1C[N@@]2CC[C@H]1C[C@H]2[C@H](O)c1ccnc2ccc(OC)cc12 [Quinine Sulfate]
LPS % inhibition [1]: 14% | Quadrant (FIG. 5b) [2, 12]: Q4 | LPS % cell toxicity (primary rat microglia [3]; rat): 1% | Fibrin % inhibition [4, 13]: −30% | Fibrin % cell toxicity (primary rat microglia [5]; rat): 1%

c1ccc([C@H]2CN3CCSC3=N2)cc1 [Levamisole]
inhibition at 10 µM [1, 15]: 12% | Quadrant (FIG. 5b) [2]: Q4 | LPS % cell toxicity (primary rat microglia [3]; rat): 0% | inhibition at 10 µM [4]: -15% | Fibrin % cell toxicity (primary rat microglia [5]; rat): 0%

COC(C)(C)CCC[C@H](C)C/C=C/C(C)=C/C(=O)OC(C)C [Methoprene (s)]
LPS % inhibition ([1]; primary microglia HTS, LPS stimulation; increased cell size (>800 μm^2) as marker of activation): 12% | Quadrant (FIG. 5b) [2, 16]: Q4 | LPS % cell toxicity (primary rat microglia [3]): 0% | Fibrin % inhibition [4, 17]: −9% | Fibrin % cell toxicity (primary rat microglia [5]): 1%

CC12CCC(CC1=O)C2(C)C [D-camphor]
LPS % inhibition ([1]; primary microglia HTS, LPS stimulation, compounds at 10 μM): 6% | Quadrant (FIG. 5b) [2, 9]: Q4 | LPS % cell toxicity (primary rat microglia [3]): 0% | Fibrin % inhibition [4, 10]: −32% | Fibrin % cell toxicity (primary rat microglia [5]): 0%

CC(=O)N1CCN(c2ccc(OCC3COC(Cn4ccnc4)(c4ccc(Cl)cc4Cl)O3)cc2)CC1 (stereo not shown) [Ketoconazole]
inhibition at 10 µM [1, 15]: -1% | Quadrant (FIG. 5b) [2]: Q4 | LPS % cell toxicity (primary rat microglia [3]; rat): 0% | inhibition at 10 µM [4]: -57% | Fibrin % cell toxicity (primary rat microglia [5]; rat): 0%

CCN(CC)CCOc1ccc(C(=C(Cl)c2ccccc2)c2ccccc2)cc1 [Clomiphene]
inhibition at 10 µM [1, 11]: 7% | Quadrant (FIG. 5b) [2]: Q4 | LPS % cell toxicity (primary rat microglia [3]; rat): 0% | inhibition at 10 µM [4]: 11% | Fibrin % cell toxicity (primary rat microglia [5]; rat): 1%

CN/C(=N/CCSCc1nc[nH]c1C)NC#N [Cimetidine]
inhibition at 10 µM [1, 11]: 22% | Quadrant (FIG. 5b) [2]: Q4 | LPS % cell toxicity (primary rat microglia [3]; rat): 1% | inhibition at 10 µM [4]: -1% | Fibrin % cell toxicity (primary rat microglia [5]; rat): 0%

CCCCCOC(=O)Nc1nc(=O)n([C@@H]2O[C@H](C)[C@@H](O)[C@H]2O)cc1F [Capecitabine]
inhibition at 10 µM ([1]; Rattus norvegicus, Microglia, primary HTS, 10 μM, LPS-stimulated primary microglia; read-out: LPS % inhibition): 25% | Quadrant (FIG. 5b) ([2]; primary HTS, 10 μM): Q4 | LPS % cell toxicity (primary rat microglia [3]; rat): 1% | inhibition at 10 µM [4, 18]: 43% | Fibrin % cell toxicity (primary rat microglia [5]; rat): 1%

CC(=O)Nc1c(I)c(NC(C)=O)c(I)c(C(=O)O)c1I [Diatrizoate]
inhibition at 10 µM [1, 11]: 5% | Quadrant (FIG. 5b) [2]: Q4 | LPS % cell toxicity (primary rat microglia [3]; rat): 0% | inhibition at 10 µM [4]: 4% | Fibrin % cell toxicity (primary rat microglia [5]; rat): 0%

O=C1NS(=O)(=O)c2ccccc21 [Saccharin]
inhibition at 10 µM [1, 15]: 11% | Quadrant (FIG. 5b) [2]: Q4 | LPS % cell toxicity (primary rat microglia [3]; rat): 0% | inhibition at 10 µM [4]: -8% | Fibrin % cell toxicity (primary rat microglia [5]; rat): 0%

CC(C)(S)[C@@H](N)C(=O)O [Penicillamine]
inhibition at 10 µM [1, 14]: 16% | Quadrant (FIG. 5b) [2, 12]: Q4 | LPS % cell toxicity (primary rat microglia [3]; rat): 0% | inhibition at 10 µM [4, 13]: -15% | Fibrin % cell toxicity (primary rat microglia [5]; rat): 0%

CC(C)NCC(O)c1cc(O)cc(O)c1 (stereo not shown) [Orciprenaline]
inhibition at 10 µM ([1]; Rattus norvegicus, Microglia, 48 h, primary microglia HTS, LPS stimulation; increased cell size (>800 μm^2) as marker of activation; read-out: LPS % inhibition): 25% | Quadrant (FIG. 5b) [2, 16]: Q4 | LPS % cell toxicity (primary rat microglia [3]; rat): 0% | inhibition at 10 µM [4, 17]: 15% | Fibrin % cell toxicity (primary rat microglia [5]; rat): 0%

CCC(=O)OCC(=O)[C@@]1(OC(=O)CC)[C@@H](C)C[C@H]2[C@@H]3CCC4=CC(=O)C=C[C@]4(C)[C@@]3(F)[C@@H](O)C[C@@]21C [Betamethasone 17,21-dipropionate]
LPS % inhibition [1, 19]: 29% | Quadrant (FIG. 5b) ([2]; primary HTS, 10 μM): Q4 | LPS % cell toxicity (primary rat microglia [3]): 0% | Fibrin % inhibition [4, 18]: 21% | Fibrin % cell toxicity (primary rat microglia [5]): 1%

O=C1Cc2cc(CCN3CCN(c4nsc5ccccc45)CC3)c(Cl)cc2N1 [Ziprasidone Mesylate, Ziprasidone]
LPS % inhibition ([1]; primary microglia HTS, 10 μM, LPS-stimulated, cell size >800 μm^2 as marker of activation): 35% | Quadrant (FIG. 5b) [2, 7]: Q4 | LPS % cell toxicity (primary rat microglia [3]): 1% | Fibrin % inhibition [4, 8]: 14% | Fibrin % cell toxicity (primary rat microglia [5]): 1%

Clc1ccc(Nc2nnc(Cc3ccncc3)c3ccccc23)cc1 [Vatalanib]
inhibition at 10 µM [1, 6]: -3% | Quadrant (FIG. 5b) [2, 7]: Q4 | LPS % cell toxicity (primary rat microglia [3]; rat): 0% | inhibition at 10 µM [4, 8]: -26% | Fibrin % cell toxicity (primary rat microglia [5]; rat): 1%

Brc1c(NC2=NCCN2)ccc2nccnc12 [Brimonidine]
inhibition at 10 µM [1, 11]: -9% | Quadrant (FIG. 5b) [2]: Q4 | LPS % cell toxicity (primary rat microglia [3]; rat): 0% | inhibition at 10 µM [4]: -36% | Fibrin % cell toxicity (primary rat microglia [5]; rat): 1%

CO/N=C(\C(=O)N[C@@H]1C(=O)N2C(C(=O)O)=C(CSc3nc(=O)c(=O)[nH]n3C)CS[C@H]12)c1csc(N)n1 [Ceftriaxone]
inhibition at 10 µM [1, 11]: 12% | Quadrant (FIG. 5b) [2]: Q4 | LPS % cell toxicity (primary rat microglia [3]; rat): 0% | inhibition at 10 µM [4]: -16% | Fibrin % cell toxicity (primary rat microglia [5]; rat): 1%

O=C(O)CN1C(=O)c2cccc3cccc(c23)C1=O [Alrestatin]
inhibition at 10 µM [1, 11]: 12% | Quadrant (FIG. 5b) [2]: Q4 | LPS % cell toxicity (primary rat microglia [3]; rat): 0% | inhibition at 10 µM [4]: 11% | Fibrin % cell toxicity (primary rat microglia [5]; rat): 1%

COc1ccc2c(c1)c(CC(=O)O)c(C)n2C(=O)c1ccc(Cl)cc1 [Indomethacin]
inhibition at 10 µM ([1]; Rattus norvegicus, Microglia, 48 h, primary microglia HTS, LPS stimulation, activation = cell size >800 μm2; read-out: LPS % inhibition): 13% | Quadrant (FIG. 5b) [2, 16]: Q4 | LPS % cell toxicity (primary rat microglia [3]; rat): 0% | inhibition at 10 µM ([4]; primary microglia HTS, fibrin stimulation, activation = cell size >800 μm2): -56% | Fibrin % cell toxicity (primary rat microglia [5]; rat): 0%

CN(C/C=C/c1ccccc1)Cc1cccc2ccccc12 [Naftifine]
inhibition at 10 µM [1, 15]: 3% | Quadrant (FIG. 5b) [2]: Q4 | LPS % cell toxicity (primary rat microglia [3]; rat): 0% | inhibition at 10 µM [4]: -12% | Fibrin % cell toxicity (primary rat microglia [5]; rat): 0%

OCCN1CCN(CCCN2c3ccccc3Sc3ccc(C(F)(F)F)cc32)CC1 [Fluphenazine]
inhibition at 10 µM [1, 15]: 20% | Quadrant (FIG. 5b) [2]: Q4 | LPS % cell toxicity (primary rat microglia [3]; rat): 0% | inhibition at 10 µM [4]: 7% | Fibrin % cell toxicity (primary rat microglia [5]; rat): 1%

Oc1ccc2ccccc2c1 [Beta-naphthol]
inhibition at 10 µM [1, 11]: 15% | Quadrant (FIG. 5b) [2]: Q4 | LPS % cell toxicity (primary rat microglia [3]; rat): 0% | inhibition at 10 µM [4]: -17% | Fibrin % cell toxicity (primary rat microglia [5]; rat): 0%

CCCN(CCC)S(=O)(=O)c1ccc(C(=O)O)cc1 [Probenecid]
inhibition at 10 µM [1, 14]: 13% | Quadrant (FIG. 5b) [2, 12]: Q4 | LPS % cell toxicity (primary rat microglia [3]; rat): 0% | inhibition at 10 µM [4, 13]: 14% | Fibrin % cell toxicity (primary rat microglia [5]; rat): 1%

[O-][n+]1ccccc1[S-].[O-][n+]1ccccc1[S-].[Zn+2] [Pyrithione Zinc]
LPS % inhibition ([1]; 10 µM): 127% | Quadrant (FIG. 5b) [2]: Q2 | LPS % cell toxicity (primary rat microglia [3]): 87% | Fibrin % inhibition ([4]; 10 µM): 109% | Fibrin % cell toxicity (primary rat microglia [5]): 86%

Modaline Sulfate
LPS % inhibition [1]: 25% | Quadrant (FIG. 5b) [2]: Q4 | LPS % cell toxicity (primary rat microglia [3]): 0% | Fibrin % inhibition [4]: −9% | Fibrin % cell toxicity (primary rat microglia [5]): 1%

CC=CC1=C(C(=O)O)N2C(=O)[C@@H](NC(=O)[C@H](N)c3ccc(O)cc3)[C@H]2SC1 [Cefprozil]
LPS % inhibition [1, 19]: 14% | Quadrant (FIG. 5b) ([2]; primary HTS, 10 μM): Q4 | LPS % cell toxicity (primary rat microglia [3]): 0% | Fibrin % inhibition [4, 18]: 3% | Fibrin % cell toxicity (primary rat microglia [5]): 0%
